Tests used:
[1] = test system: relapsed or refractory B cell lymphoma; assay: Phase II clinical trial of Chidamide monotherapy in relapsed or refractory B cell lymphoma; format: in vivo, human; conditions: patients, oral 30 mg 2 times a week; 8 cases evaluated of 10 enrolled
Experimental: (§1) Test drugs: Chidamide tablets: off-white tablets, 5 mg/tablet. Produced by Shenzhen Chipscreen Biosciences Co., Ltd.
(§2) Dosage regimen: 2 times a week, 30 mg each time, the interval of two administrations should not be less than 3 days (for example, on Monday and Thursday, Tuesday and Friday, Wednesday and Saturday, etc.). The administration was performed 30 minutes after breakfast, every 3 weeks was a treatment cycle. During the entire study, all subjects should unceasingly receive the treatment under study until the appearance of any one of the following conditions: progression of disease, intolerable adverse reaction, death, withdrawal from treatment, withdrawal of the informed consent or loss to follow-up.
Number of cases: Simon's optimal two-stage design was adopted, 72 patients were enrolled, and pathological subtypes included: follicular lymphoma (FL) grade 1, grade 2 or grade 3, marginal zone B-cell lymphoma (MALT), lymphoplasmacytic lymphoma (LPL), small lymphocyte B cell lymphoma (SLL), diffuse large B cell lymphoma (DLBCL).
The patients were orally administrated with Chidamide according to the aforementioned dosage regimen, and the safety- and efficacy evaluation were performed as required at the specified time.
Efficacy evaluation time: efficacy evaluation was performed once every 6 weeks. […]

[2] = test system: relapsed or refractory follicular lymphoma (FL) accompanied with specific epigenetic regulatory gene mutation; assay: Multicenter, single-arm, open clinical trial of Chidamide tablet in relapsed or refractory follicular lymphoma with CREBBP and/or EP300 mutation (pre-test); format: in vivo, human; conditions: 11 patients accompanied with epigenetic mutation B-NHL, oral 30 mg 2 times a week
Experimental: as §1
as §2, with “follow-up. […]” for “follow-up.”
4. Having CREBBP and/or EP300 specific genetic mutation that was confirmed by second-generation sequencing;
Patients were orally administrated with Chidamide according to the regimen, and the following safety- and efficacy follow-ups were performed at the specified times:
Follow-up interval: Efficacy assessment was carried out once every 6 weeks; and efficacy follow-up was performed at the end of treatment.
Efficacy evaluation means: Evaluation of lymph nodes and organ lesions, skin lesions was performed by imaging methods (CT or PET/CT), clinical examination, bone marrow puncture and biopsy. The imaging methods used for patients must be the same at all follow-up points. […]

Nc1cc(F)ccc1NC(=O)c1ccc(CNC(=O)/C=C/c2cccnc2)cc1 [Chidamide]
ORR [1]: 37.5%
benefit rate [1]: 62.5%
CR [2]: 36.3%
ORR [2]: 72.7%

From US20220000848A1, “APPLICATION OF CHIDAMIDE” (SHENZHEN CHIPSCREEN BIOSCIENCES CO., LTD., priority 2018, published 2022)
